# Measurements as given in patent US5892029A, “3-hydroxy-2(1H)-pyridinone chelating agents” (priority 1997, dated 1999).
# Entries after “also recorded” stand apart in the source; their conditions may differ. Read-outs that look alike come from different tables or passages of the source.
# Key:
# [1] = Promoting excretion of 238Pu(IV) in mice by injected ligands (Table 3); type: in vivo; settings: 30 μmol/kg i.p.
# Source text: (§1) Animal studies were completed using methods detailed in Radiation Protection Dosimetry, 1994, 53, 305: P. W. Durbin et al., "In Vivo Chelation of Am(III), Pu(IV), Np(V) and U(VI) in Mice by TREN-(Me-3,2-HOPO)"; Radiation Protection Dosimetry, 1989, 17, 351: P. W. Durbin et al., "Removal of ^238 Pu(IV) from Mice by Polycatechoylate, -Hydroxamate or -Hydroxypyridinonate Ligands"; Radiation Research, 1984, 99, 85: P. W. Durbin et al., "Specific Sequestering Agents for the Actinides . . . "; Radiation Research, 1984, 99, 106: P. W. Durbin et al., "Removal of Pu and Am from Beagles and Mice . . . "; Radiation Research, 1980, 81, 170: R. D. Lloyd et al., and P. W. Durbin et al., "Specific Sequestering Agents for the Actinides . . . ". The foregoing articles are hereby incorporated by reference.
# (§2) Radionuclides used in the animal studies came from a variety of sources. The ^238 Pu(IV) citrate and ^241 Am(III) citrate solutions were prepared for animal injection by 8- to 10-fold dilution with 0.14M NaC1 (pH 4) of concentrated stock solutions (0.08M sodium citrate buffer) that had been held in frozen storage at Lawrence Berkeley Laboratory (hereinafter LBL) for several years. [The ^238 Pu(IV) was originally obtained from D. R. Atherton at the University of Utah Radiobiology Laboratory, Salt Lake City. The ^241 Am(III) solution had been obtained many years earlier from the LBL Actinide Chemistry group.]
# The novel chelating agents of the present invention were tested for their effectiveness in promoting excretion of ^238 Pu(IV) in mice by injected ligands as follows. Mice, in groups of five, each received an intravenous injection of 1850 Bq^238 Pu(IV) in 0.2 mL of citrate buffer. One hour later, 30 μmol/kg of ligand was injected intraperitoneally in 0.5 mL of saline. The mice were killed 24 hours after the Pu injection, frozen, and dissected after partial thawing. The ^238 Pu in skeleton, soft tissues, and separated excreta was determined by counting the ^234 U L x-rays. […]
# [2] = type: in vivo, mice; settings: for body weight / kidney weight / plasma urea N: mean ± SD; for toxicity / mortality (in words): mouse, in vivo
# Method: The test of acute toxicity of these novel ligands was carried out as follows. […] The ligand was dissolved in 0.5 to 1.0 ml of saline at pH 7 to 8. After a period of observation, the mice were killed, selected tissues were removed and fixed for histopathological examination,and unusual findings at autopsy were recorded.
# [3] = Promoting excretion of 237Np(V) in mice by injected ligands (Table 5); type: in vivo; settings: 30 μmol/kg i.p. at 3 to 5 min after actinide i.v.
# Source text: as §1
# The ^237 Np(V) was obtained from J. Bucher of the LBL Actinide Chemistry group as NpO2 Cl in 0.1M HCl. It was diluted to the desired radioactivity concentration in 0.14M NaCl and the pH was adjusted to about 4.5 with NaOH just before use.
# (§3) One of the novel chelating agents of the present invention, TREN-Me-3,2-HOPO, was also tested for effectiveness in promoting excretion of ^241 AM(III), ^237 Np(V), and ^232 U(VI) by injection into mice, as follows: Mice, in groups of five, each received an intravenous injection of (a) 1100 Bq of ^241 Am(III) in 0.2 mL of citrate buffer, (b) 150 Bq of ^232 UO2 Cl2 plus 3.6 mg of ^235 UO2 Cl2 in 0.2 mL of saline, or (c) 200 Bq of ^237 NpO2 Cl ([…] of ^237 NPO2 Cl) in 0.2 mL of saline. Three to five minutes later, 30 μmol/kg of TREN-Me-3,2-HOPO was injected intraperitoneally in 0.5 mL of saline. The mice were killed 24 hours after the actinide injection, frozen, and dissected after partial thawing. The skeleton, soft tissues, and separated excreta were radioanalyzed by counting the ^241 Am gamma rays, or the alpha particles emitted by ^237 Np or ^232 U (and its ingrowing daughters). Removal of those actinides from mice by injected TREN-Me-3,2-HOPO is summarized in Table 5, which also includes data for mice similarly treated with CaNa3 -DTPA and for actinide-injected controls. […] The structure of Am(III)-TREN-Me-3,2-HOPO is considered to resemble that of the Gd(III) complexes (see Example 20). Complexation of the fraction of Np(V) that is reduced in vivo to Np(IV) is considered to resemble that of Pu(IV). Complexation of U(VI) is considered to take place through binding to UO2^2+.
# (§4) ^a Ligands (30 μmol/kg) i.p. at 3 to 5 min after actinide i.v.;
# [4] = 30 μmol/kg i.p. at 1 h; reported previously (footnote e); cited from earlier work
# [5] = Promoting excretion of U(VI) in mice by injected ligands (Table 5); type: in vivo; settings: 30 μmol/kg i.p. at 3 to 5 min after actinide i.v.
# Source text: as §1
# The ^232 U was obtained from the Isotope Products Laboratory, Burbank, Calif., and ^234,235 U was obtained as U metal from long-held LBL storage. The two U sources were combined and dissolved in 6N HNO3, dried, and redissolved in 0.1N HCl. The daughter radioactivities were removed by elution from a Dowex-50X4 column (22 cm length, 0.7 cm diameter, 1.5 mL min^-1 flow rate) with 3.2N HCl. The U fractions (previously identified by a trial run with ^234,235 U alone) were combined, dried, and redissolved in 0.14M NaCl at pH 5.5.
# as §3, §4
# [6] = Promoting excretion of 241Am(III) in mice by injected ligands (Table 5); type: in vivo; settings: 30 μmol/kg i.p. at 3 to 5 min after actinide i.v.
# Source text: as §1, §2, §3, §4
# [7] = Fe(III); background; cited from earlier work
# [8] = Gd3+ complex stability in aqueous solution; type: binding
# [9] = protocol I: 100 μmol/kg × 10 daily i.p., 11 d
# [10] = protocol I: 100 μmol/kg × 10 daily i.p., 11 d, of 5 mice
# [11] = protocol I: 100 μmol/kg × 10 daily i.p., 21 d
# [12] = protocol I: 100 μmol/kg × 10 daily i.p., 21 d, of 5 mice
# [13] = protocol II: 500 μmol/kg × 2 in 8 h i.p., 11 d
# [14] = protocol II: 500 μmol/kg × 2 in 8 h i.p., 11 d, of 5 (5-LI) or 10 (5-LI-O) mice
compound,measurement,setting,value
"Cn1ccc(C(=O)NCCCCNC(=O)c2ccn(C)c(=O)c2O)c(O)c1=O [4-LI-Me-3,2-HOPO, 1,4-bis[(3-hydroxy-1-methyl-2-oxo-1,2-dihydro-pyridin-4-yl)carboxamido]butane]","effectiveness of Pu removal, injected (in words)",[1],as effective or more effective than the hexadentate and octadentate chelating agents
same,body weight,"[2]; protocol IB: 100 μmol/kg, 5 d",85 ± 8 percent control
same,kidney weight,"[2]; protocol IB: 100 μmol/kg, 5 d",190 ± 63 percent control
same,plasma urea N,"[2]; protocol IB: 100 μmol/kg, 5 d",> 2000 percent control
same,no. of survivors,"[2]; protocol IB: 100 μmol/kg, 5 d, of 3 mice",0
"Cn1ccc(C(=O)NCCCCCNC(=O)c2ccn(C)c(=O)c2O)c(O)c1=O [5-LI-Me-3,2-HOPO, 1,5-bis[(3-hydroxy-1-methyl-2-oxo-1,2-dihydro-pyridin-4-yl)carboxamido]pentane]","effectiveness of Pu removal, injected (in words)",[1],as effective or more effective than the hexadentate and octadentate chelating agents
same,toxicity / mortality (in words),[2],low toxicity
same,body weight,[2]; [9],102 ± 5 percent control
same,kidney weight,[2]; [9],109 ± 14 percent control
same,plasma urea N,[2]; [9],89 ± 1 percent control
same,no. of survivors,[2]; [10],5
same,body weight,[2]; [11],102 ± 5 percent control
same,kidney weight,[2]; [11],100 ± 4 percent control
same,plasma urea N,[2]; [11],101 ± 2 percent control
same,no. of survivors,[2]; [12],5
same,body weight,[2]; [13],99 ± 3 percent control
same,kidney weight,[2]; [13],109 ± 9 percent control
same,plasma urea N,[2]; [13],98 ± 18 percent control
same,no. of survivors,[2]; [14],5
"Cn1ccc(C(=O)NCCOCCNC(=O)c2ccn(C)c(=O)c2O)c(O)c1=O [5-LI-O-Me-3,2-HOPO, 1,5-bis[(3-hydroxy-1-methyl-2-oxo-1,2-dihydro-pyridin-4-yl)carboxamido]-3-oxypentane]","effectiveness of Pu removal, injected (in words)",[1],as effective or more effective than the hexadentate and octadentate chelating agents
same,toxicity / mortality (in words),[2],low toxicity
same,body weight,[2]; [9],103 ± 5 percent control
same,kidney weight,[2]; [9],100 ± 19 percent control
same,plasma urea N,[2]; [9],83 ± 5 percent control
same,no. of survivors,[2]; [10],5
same,body weight,[2]; [11],101 ± 5 percent control
same,kidney weight,[2]; [11],111 ± 5 percent control
same,plasma urea N,[2]; [11],86 ± 18 percent control
same,no. of survivors,[2]; [12],5
same,body weight,[2]; [13],100 ± 2 percent control
same,kidney weight,[2]; [13],108 ± 10 percent control
same,plasma urea N,[2]; [13],77 ± 10 percent control
same,no. of survivors,[2]; [14],110
"O=C(O)CN(CCN(CC(=O)O)CC(=O)O)CCN(CC(=O)O)CC(=O)O [CaNa3 -DTPA, reference compound]",Np(V) in liver at 24 h,[3],14 ± 5.7% of injected actinide
same,Np(V) in skeleton at 24 h,[3],40 ± 4.4% of injected actinide
same,Np(V) in soft tissue at 24 h,[3],3.5 ± 0.9% of injected actinide
same,Np(V) in whole body at 24 h,[3],58 ± 8.0% of injected actinide
same,Np(V) excreta: feces and GI contents,[3]; pooled,1.5% of injected actinide
same,Np(V) excreta: urine 0-24 h,[3]; pooled,40% of injected actinide
same,Np(V) in kidneys at 24 h,[3]; pooled,1.3% of injected actinide
same,238Pu excreta: feces and GI contents,[4],5.1% of injected ^238 Pu
same,238Pu excreta: urine 0-24 h,[4],61% of injected ^238 Pu
same,238Pu in kidneys at 24 h,[4],1.1% of injected ^238 Pu
same,238Pu in liver at 24 h,[4],17 ± 4.0% of injected ^238 Pu
same,238Pu in skeleton at 24 h,[4],12 ± 2.3% of injected ^238 Pu
same,238Pu in soft tissue at 24 h,[4],3.5 ± 1.6% of injected ^238 Pu
same,238Pu in whole body at 24 h,[4],33 ± 6.6% of injected ^238 Pu
same,U(VI) in kidneys at 24 h,[5],17 ± 2.8% of injected actinide
same,U(VI) in liver at 24 h,[5],1.0% of injected actinide
same,U(VI) in skeleton at 24 h,[5],19 ± 3.0% of injected actinide
same,U(VI) in whole body at 24 h,[5],38 ± 0.7% of injected actinide
same,U(VI) combined excreta,[5]; combined excreta (footnote f),62% of injected actinide
same,Am(III) in liver at 24 h,[6],13 ± 1.5% of injected actinide
same,Am(III) in skeleton at 24 h,[6],8.5 ± 0.9% of injected actinide
same,Am(III) in soft tissue at 24 h,[6],1.9 ± 0.3% of injected actinide
same,Am(III) in whole body at 24 h,[6],24 ± 1.3% of injected actinide
same,Am(III) excreta: feces and GI contents,[6]; pooled,8.0% of injected actinide
same,Am(III) excreta: urine 0-24 h,[6]; pooled,68% of injected actinide
same,Am(III) in kidneys at 24 h,[6]; pooled,0.4% of injected actinide
"O=C(NCc1cc(CNC(=O)c2cccc(=O)n2O)cc(CNC(=O)c2cccc(=O)n2O)c1)c1cccc(=O)n1O [ME-(1,2-HOPO)]",238Pu excreta: feces and GI contents,[4],43% of injected ^238 Pu
same,238Pu excreta: urine 0-24 h,[4],9.6% of injected ^238 Pu
same,238Pu in kidneys at 24 h,[4],1.8% of injected ^238 Pu
same,238Pu in liver at 24 h,[4],18 ± 6.3% of injected ^238 Pu
same,238Pu in skeleton at 24 h,[4],17 ± 2.5% of injected ^238 Pu
same,238Pu in soft tissue at 24 h,[4],10 ± 1.8% of injected ^238 Pu
same,238Pu in whole body at 24 h,[4],47 ± 9.4% of injected ^238 Pu
O=C(N[C@H]1COC(=O)[C@@H](NC(=O)c2cccc(O)c2O)COC(=O)[C@@H](NC(=O)c2cccc(O)c2O)COC1=O)c1cccc(O)c1O [enterobactin],formation constant Kf,[7],≈ 10^49
same,pM,[7],35.5
"Gadolinium (III) Ion Complex with N,N,N,-Tris[(3-hydroxy-1-methyl-2-oxo-1,2-dihydropyridin-4-yl)carboxamidoethyl]-amine [Gd(III)-TREN-3,2-HOPO complex]",pM value for Gd^3+,[8],19
same,formation constant log β110,[8]; aqueous solution,20.3
same,stability of the complex (in words),[8]; aqueous solution,very stable in aqueous solution; also recorded: substantially more stable than any of the Gd^3+ MRI agents in current clinical use
